Source: patent US11090285B2, “Treatment of circadian rhythm disorders” (Vanda Pharmaceuticals Inc., priority 2013, dated 2021)
Entries after “also recorded” stand apart in the source; their conditions may differ.

How the values were obtained:
[1] = tested on: Non-24 patients; assay: Phase advance of circadian rhythm on initiation of treatment; assay type: in vivo, human; details: upon initiation of treatment
Procedure: For example, treatment of a patient who has a target bedtime of 10:00 p.m. and a target wake time of 7:00 a.m., treatment initiation can be on a day when urinary aMT6s acrophase is predicted to occur at 3:30 am. However, treatment with tasimelteon can conveniently be initiated on a day on which melatonin acrophase, e.g., using calculated urinary aMT6s acrophase, is predicted to be between about 5.5 hours before target wake time and 2.5 hours after target wake time. Without intending to be bound to a particular theory, this flexibility is apparently owing to the unusually marked effects of such active ingredient on circadian rhythm upon initiation of treatment (e.g., phase advance by as much as about 5 hours on initial treatment).

[2] = tested on: patients with Non-24; assay: SET Study, Phase III randomized, double-masked, placebo-controlled; assay type: in vivo, human
Procedure: Specifically, patients were orally administered 20 mg tasimelteon per day for at least 12 weeks prior to re-estimating tau. Patients were selected for randomization or open label based on baseline tau estimates. Drug was administered at about 1 hour prior to target sleep time, as determined by patients based on a 9 hour nighttime sleep period.
The SET study was an 84 patient randomized, double-masked, placebo-controlled study in patients with Non-24. The primary endpoints for this study were Entrainment of the melatonin (aMT6s) rhythm to the 24-hour clock and Clinical Response as measured by Entrainment plus a score of greater than or equal to 3 on the following N24CRS:
The SET study also assessed a number of secondary endpoints including Entrainment of cortisol rhythm and a broad range of clinical sleep and wake parameters. These parameters included improvement in the total nighttime sleep in the worst 25% of nights (LQ-nTST), decrease in the total daytime sleep duration in the worst 25% of days (UQ-dTSD) and midpoint of sleep timing (MoST) which is derived from a combination of the sleep reported for both nighttime and daytime. CGI-C is a seven-point rating scale of global functioning with lower scores indicating larger improvements.

[3] = tested on: blind individuals with Non-24; assay: RESET Study, randomized withdrawal, maintenance of effect; assay type: in vivo, human
Procedure: Patients were treated with tasimelteon for at least twelve weeks during an open-label run-in phase during the SET Study. Patients who responded to tasimelteon treatment during the run-in phase were then randomized to receive either placebo or tasimelteon (20 mg/day) for 2 months.
The primary endpoint of the RESET Study was the maintenance of effect as measured by entrainment of the melatonin (aMT6s) rhythm.
The RESET study also assessed a number of secondary endpoints including maintenance of entrainment of the cortisol rhythm and a range of sleep and wake parameters including LQ-nTST (total nighttime sleep in the worst 25% of nights), UQ-dTSD (total daytime sleep duration in the worst 25% of days) and MoST (midpoint of sleep timing from both nighttime and daytime sleep).

[4] = tested on: Non-24 patients; assay: Entrainment by peak aMT6s level and beta blocker use (clinical studies); assay type: in vivo, human
Procedure: Results of clinical study also show a strong correlation between endogenous melatonin and efficacy of tasimelteon in entraining patients to a 24 hour circadian rhythm. The following table (Table 3A) compares the peak aMT6s levels in the 24 entrained and 23 non-entrained patients.
Data from these studies currently available also indicate that beta blocker therapy is […] related to efficacy of tasimelteon, i.e., patients receiving beta blocker therapy were less likely to become entrained than patients who were not.

[5] = Tasimelteon exposure with Rifampin (CYP3A4 inducer); assay type: in vivo, human; details: single 20 mg dose after 11 days of 600 mg Rifampin
Procedure: For example, when a single 20 mg dose of tasimelteon was administered after 11 days of the administration of 600 mg of Rifampin, tasimelteon mean exposure was reduced by approximately 89%. Therefore, in cases where an individual is co-administered a CYP3A4 inducer, the dose of tasimelteon administered may be greater than if administered alone or in the absence of a CYP3A4 inducer.

[6] = Effect of smoking on pharmacokinetics of tasimelteon and metabolites; assay type: in vivo, human
Text: Smokers were defined as those smoking 10 or more cigarettes per day. Non-smokers were defined as those smoking no cigarettes per day.

[7] = tmax after administration; design: species or system human; details: in vivo
Procedure: The ability to administer tasimelteon as little as about one hour prior to sleep time is advantageous because it allows for avoidance of pre-sleep time soporific effects, because it allows for administration of higher doses that might have greater soporific effects, and because it allows for pharmacologic intervention at a different phase of the sleep cycle than if it were administered earlier. Without wishing to be bound to any particular theory, it appears that the ability to administer tasimelteon so close to sleep time is a function of its tmax, which is approximately one-half hour. Melatonin, on the other hand, which has a tmax of approximately 2 hours or more, is administered several hours before sleep time, which can cause premature sleepiness; to avoid this soporific effect, melatonin is sometimes administered at sub-optimal doses.

[8] = tested on: CYP1A2 and CYP3A4; assay: Isoenzymes involved in tasimelteon metabolism; assay type: in vitro ADME
[9] = 20 mg/day, SET secondary endpoint
[10] = 20 mg/day, sensitivity analysis
[11] = RESET, higher number indicates improvement

- reduction of tasimelteon mean exposure [5]: approximately 89%
- CL/F ([6]; Non-Smokers): 1,482 ± 1,008 mL/min
- CL/F ([6]; Smokers): 2,290 ± 1,232 mL/min
- AUC (inf), Geometric Mean Ratio ([6]; Smokers vs Non-Smokers): 60.14%
- CL/F, Geometric Mean Ratio ([6]; Smokers vs Non-Smokers): 166.27%
- Cmax, Geometric Mean Ratio ([6]; Smokers vs Non-Smokers): 63.98%
- Vz/F, Geometric Mean Ratio ([6]; Smokers vs Non-Smokers): 144.39%
- t½, Geometric Mean Ratio ([6]; Smokers vs Non-Smokers): 86.84%
- isoenzymes also involved in metabolism [8]: CYP1A1, CYP2D6, CYP2C19, and CYP2C9
- major isoenzymes involved in the metabolism [8]: CYP1A2 and CYP3A4
Structure (SMILES): CCC(=O)NC[C@@H]1C[C@H]1c1cccc2c1CCO2 (relative stereo) [Tasimelteon, trans-N-[[2-(2,3-dihydrobenzofuran-4-yl)cycloprop-1yl]methyl]propanamide]
- phase advance on initial treatment [1]: ≤ 5 h
- Entrainment (aMT6s) ([2]; 20 mg/day oral, SET primary endpoint): 20.0%
- LQ-nTST (LS mean minutes) ([2]; 20 mg/day, SET): 57.0 min
- MoST (LS mean minutes) ([2]; 20 mg/day, SET): 34.8 min
- Clinical Response (Entrainment + N24CRS >=3) ([2]; 20 mg/day, SET primary endpoint): 23.7%
- Entrainment (cortisol) [2, 9]: 17.5%
- N24CRS (LS mean minutes) [2, 9]: 1.77 min
- UQ-dTSD (LS mean minutes) ([2]; 20 mg/day, SET, smaller numbers indicate improvement): -46.2 min
- Clinical Response (Entrainment + N24CRS >=2) [2, 10]: 28.9%
- N24CRS >=2 [2, 10]: 57.9%
- N24CRS >=3 [2, 10]: 28.9%
- CGI-C (LS mean minutes) ([2]; 20 mg/day, smaller numbers indicate improvement): 2.6 min
- safety and tolerability ([2]; SET study): safe and well tolerated
- percentage of entrained patients ([2]; on drug at least two circadian cycles, not on beta blockers, tau<24.7 hours): approximately 85%
- LQ-nTST and UQ-dTSD >=90 min ([2]; only subjects with significant sleep and nap problems at baseline): 23.8%
- LQ-nTST and UQ-dTSD >=45 min ([2]; sensitivity analysis): 31.6%
- maintenance of entrainment (cortisol) ([3]; 20 mg/day, RESET): 80.0%
- Maintenance of entrainment (aMT6s) ([3]; 20 mg/day, RESET primary endpoint): 90.0%
- LQ-nTST (LS mean minutes) [3, 11]: -6.6 min
- MoST (LS mean minutes) [3, 11]: 19.8 min
- UQ-dTSD (LS mean minutes) ([3]; RESET, lower number indicates improvement): -9.6 min
- LQ-nTST (LS mean minutes), Difference ([3]; tasimelteon vs placebo): 67.2 min
- MoST (LS mean minutes), Difference ([3]; tasimelteon vs placebo): 36.0 min
- UQ-dTSD (LS mean minutes), Difference ([3]; tasimelteon vs placebo): -59.4 min
- maintenance of entrainment (cortisol), Difference ([3]; tasimelteon vs placebo): 60.0%
- Entrained patients ([4]; Peak aMT6s <1500 ng/hr): 12 (41%)
- Non-entrained patients ([4]; Peak aMT6s <1500 ng/hr): 17 (59%)
- Entrained patients ([4]; Peak aMT6s <2000 ng/hr): 13 (38%)
- Non-entrained patients ([4]; Peak aMT6s <2000 ng/hr): 21 (62%)
- Entrained patients ([4]; Peak aMT6s ≥1500 ng/hr): 12 (67%)
- Non-entrained patients ([4]; Peak aMT6s ≥1500 ng/hr): 6 (33%)
- Entrained patients ([4]; Peak aMT6s ≥2000 ng/hr): 11 (85%)
- Non-entrained patients ([4]; Peak aMT6s ≥2000 ng/hr): 2 (15%)
- Entrained patients ([4]; Peak aMT6s: All (47 patients)): 24 (51%)
- Non-entrained patients ([4]; Peak aMT6s: All (47 patients)): 23 (49%)
- Entrained patients ([4]; Taking Beta Blocker: No): 24
- Non-entrained patients ([4]; Taking Beta Blocker: No): 19
- Entrained patients ([4]; Taking Beta Blocker: Yes): 0
- Non-entrained patients ([4]; Taking Beta Blocker: Yes): 4
- patients who responded to therapy ([4]; baseline aMT6s excretion rate >2000 ng/hr): Eleven of thirteen
- Tmax [7]: approximately one-half; also recorded: about one-half
